Experimental data published in PubChem BioAssay (NCI).
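Interpolation was linear, between the two tested concentrations surrounding the appropriate level; five concentrations were tested over 48 hours in 96-well plates. At the GI50, growth is halved. The concentration for full growth arrest is given as TGI.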

How the values were obtained:
Assay in all cases: NCI-60 cell line screen, 48 h
BT-549 breast = tested on: BT-549 breast
SF-268 CNS = tested on: SF-268 CNS
RXF 393 renal = tested on: RXF 393 renal
HS 578T breast = tested on: HS 578T breast
NCI-H226 lung = tested on: NCI-H226 lung
SNB-75 CNS = tested on: SNB-75 CNS
SK-MEL-28 melanoma = tested on: SK-MEL-28 melanoma
M14 melanoma = tested on: M14 melanoma
HT29 colon = tested on: HT29 colon
SF-539 CNS = tested on: SF-539 CNS
ACHN renal = tested on: ACHN renal
CCRF-CEM leukemia = tested on: CCRF-CEM leukemia
MALME-3M melanoma = tested on: MALME-3M melanoma
EKVX NSCLC = tested on: EKVX NSCLC
TK-10 renal = tested on: TK-10 renal
MCF7 breast = tested on: MCF7 breast
SF-295 CNS = tested on: SF-295 CNS
COLO 205 colon = tested on: COLO 205 colon
UACC-257 melanoma = tested on: UACC-257 melanoma
SK-MEL-2 melanoma = tested on: SK-MEL-2 melanoma
NCI-H522 lung = tested on: NCI-H522 lung
SR leukemia = tested on: SR leukemia
RPMI-8226 leukemia = tested on: RPMI-8226 leukemia
OVCAR-4 ovarian = tested on: OVCAR-4 ovarian
MDA-MB-231 breast = tested on: MDA-MB-231 breast
HCT-116 colon = tested on: HCT-116 colon
SK-OV-3 ovarian = tested on: SK-OV-3 ovarian
SN12C renal = tested on: SN12C renal
SNB-19 CNS = tested on: SNB-19 CNS
HL-60(TB) leukemia = tested on: HL-60(TB) leukemia
PC-3 prostate = tested on: PC-3 prostate
CAKI-1 renal = tested on: CAKI-1 renal
UACC-62 melanoma = tested on: UACC-62 melanoma
OVCAR-8 ovarian = tested on: OVCAR-8 ovarian
HOP-92 NSCLC = tested on: HOP-92 NSCLC
NCI-H23 lung = tested on: NCI-H23 lung
MOLT-4 leukemia = tested on: MOLT-4 leukemia
DU-145 prostate = tested on: DU-145 prostate
UO-31 renal = tested on: UO-31 renal
SK-MEL-5 melanoma = tested on: SK-MEL-5 melanoma
786-0 renal = tested on: 786-0 renal
K-562 leukemia = tested on: K-562 leukemia
HOP-62 NSCLC = tested on: HOP-62 NSCLC
MDA-MB-435 = tested on: MDA-MB-435
LOX IMVI melanoma = tested on: LOX IMVI melanoma
A498 renal = tested on: A498 renal
OVCAR-5 ovarian = tested on: OVCAR-5 ovarian
NCI/ADR-RES ovarian = tested on: NCI/ADR-RES ovarian
NCI-H460 lung = tested on: NCI-H460 lung
KM12 colon = tested on: KM12 colon
HCT-15 colon = tested on: HCT-15 colon
U251 CNS = tested on: U251 CNS
A549 NSCLC = tested on: A549 NSCLC
HCC-2998 colon = tested on: HCC-2998 colon
IGROV1 ovarian = tested on: IGROV1 ovarian
T-47D breast = tested on: T-47D breast
SW-620 colon = tested on: SW-620 colon

COc1ccc(-c2nc3cc(Cl)c(Cl)cc3n2CC(=O)N=Nc2c(O)[nH]c3ccc(Br)cc23)cc1
GI50 (BT-549 breast): 6730 nM
TGI (BT-549 breast): > 100000 nM
GI50 (SF-268 CNS): 3620 nM
TGI (SF-268 CNS): > 100000 nM
GI50 (RXF 393 renal): 1870 nM
TGI (RXF 393 renal): 3710 nM
GI50 (HS 578T breast): 2050 nM
TGI (HS 578T breast): 5720 nM
GI50 (NCI-H226 lung): 3750 nM
TGI (NCI-H226 lung): > 100000 nM
GI50 (SNB-75 CNS): 2110 nM
TGI (SNB-75 CNS): 12400 nM

O=C(NNc1nc2cc(F)cc(F)c2n2cccc12)c1cnccn1
GI50 (SK-MEL-28 melanoma): 549 nM
TGI (SK-MEL-28 melanoma): 13500 nM
GI50 (M14 melanoma): 279 nM
TGI (M14 melanoma): 2850 nM
GI50 (HT29 colon): 571 nM
TGI (HT29 colon): 8730 nM
GI50 (SF-539 CNS): 436 nM
TGI (SF-539 CNS): 10300 nM
GI50 (ACHN renal): 239 nM
TGI (ACHN renal): 10600 nM
GI50 (CCRF-CEM leukemia): 163 nM
TGI (CCRF-CEM leukemia): > 100000 nM
GI50 (MALME-3M melanoma): 904 nM
TGI (MALME-3M melanoma): 10400 nM
GI50 (EKVX NSCLC): 320 nM
TGI (EKVX NSCLC): 12000 nM
GI50 (TK-10 renal): 613 nM
TGI (TK-10 renal): 10500 nM
GI50 (BT-549 breast): 1120 nM
TGI (BT-549 breast): 7680 nM
GI50 (MCF7 breast): 353 nM
TGI (MCF7 breast): 7610 nM
GI50 (SF-295 CNS): 250 nM
TGI (SF-295 CNS): 6450 nM
GI50 (SF-268 CNS): 365 nM
TGI (SF-268 CNS): 14500 nM
GI50 (RXF 393 renal): 659 nM
TGI (RXF 393 renal): 4770 nM
GI50 (COLO 205 colon): 324 nM
TGI (COLO 205 colon): 4560 nM
GI50 (UACC-257 melanoma): 587 nM
TGI (UACC-257 melanoma): 3430 nM
GI50 (SK-MEL-2 melanoma): 893 nM
TGI (SK-MEL-2 melanoma): 4370 nM
GI50 (NCI-H522 lung): 392 nM
TGI (NCI-H522 lung): 7500 nM
GI50 (SR leukemia): 80.1 nM
TGI (SR leukemia): > 87800 nM
GI50 (RPMI-8226 leukemia): 379 nM
TGI (RPMI-8226 leukemia): > 100000 nM
GI50 (OVCAR-4 ovarian): 302 nM
TGI (OVCAR-4 ovarian): 8990 nM
GI50 (MDA-MB-231 breast): 807 nM
TGI (MDA-MB-231 breast): 12300 nM
GI50 (HS 578T breast): 1740 nM
TGI (HS 578T breast): 24100 nM
GI50 (HCT-116 colon): 297 nM
TGI (HCT-116 colon): 6790 nM
GI50 (SK-OV-3 ovarian): 539 nM
TGI (SK-OV-3 ovarian): 7270 nM
GI50 (SN12C renal): 641 nM
TGI (SN12C renal): 15000 nM
GI50 (SNB-19 CNS): 426 nM
TGI (SNB-19 CNS): 16900 nM
GI50 (HL-60(TB) leukemia): 263 nM
GI50 (PC-3 prostate): 448 nM
TGI (PC-3 prostate): 13500 nM
GI50 (CAKI-1 renal): 340 nM
TGI (CAKI-1 renal): 6660 nM
GI50 (UACC-62 melanoma): 407 nM
TGI (UACC-62 melanoma): 3850 nM
GI50 (OVCAR-8 ovarian): 279 nM
TGI (OVCAR-8 ovarian): 4910 nM
GI50 (HOP-92 NSCLC): 851 nM
TGI (HOP-92 NSCLC): 7350 nM
GI50 (NCI-H23 lung): 872 nM
TGI (NCI-H23 lung): 15800 nM
GI50 (MOLT-4 leukemia): 291 nM
TGI (MOLT-4 leukemia): > 100000 nM
GI50 (DU-145 prostate): 457 nM
TGI (DU-145 prostate): 13700 nM
GI50 (UO-31 renal): 107 nM
TGI (UO-31 renal): 2930 nM
GI50 (SK-MEL-5 melanoma): 1050 nM
TGI (SK-MEL-5 melanoma): 5760 nM
GI50 (786-0 renal): 371 nM
TGI (786-0 renal): 4020 nM
GI50 (K-562 leukemia): 364 nM
TGI (K-562 leukemia): > 100000 nM
GI50 (HOP-62 NSCLC): 147 nM
TGI (HOP-62 NSCLC): 4170 nM
GI50 (NCI-H226 lung): 1120 nM
TGI (NCI-H226 lung): 6890 nM
GI50 (MDA-MB-435): 610 nM
TGI (MDA-MB-435): 13500 nM
GI50 (LOX IMVI melanoma): 211 nM
TGI (LOX IMVI melanoma): 5930 nM
GI50 (A498 renal): 1370 nM
TGI (A498 renal): 5570 nM
GI50 (OVCAR-5 ovarian): 715 nM
TGI (OVCAR-5 ovarian): 14400 nM
GI50 (NCI/ADR-RES ovarian): 278 nM
TGI (NCI/ADR-RES ovarian): 5220 nM
GI50 (NCI-H460 lung): 178 nM
TGI (NCI-H460 lung): 3010 nM
GI50 (KM12 colon): 311 nM
TGI (KM12 colon): 12600 nM
GI50 (HCT-15 colon): 106 nM
TGI (HCT-15 colon): 21300 nM
GI50 (U251 CNS): 172 nM
TGI (U251 CNS): 8920 nM
GI50 (A549 NSCLC): 288 nM
TGI (A549 NSCLC): 11300 nM
GI50 (SNB-75 CNS): 1130 nM
TGI (SNB-75 CNS): 9370 nM
GI50 (HCC-2998 colon): 564 nM
TGI (HCC-2998 colon): 14900 nM
GI50 (IGROV1 ovarian): 206 nM
TGI (IGROV1 ovarian): 10700 nM
GI50 (T-47D breast): 403 nM
TGI (T-47D breast): 12600 nM
GI50 (SW-620 colon): 402 nM
TGI (SW-620 colon): 14400 nM
